Test results taken from patent publication US10570097B2, “Antimicrobial imidazolium compounds” (AGENCY FOR SCIENCE, TECHNOLOGY AND RESEARCH, priority 2014, dated 2020).

Tests used:
[1] = test system: S. aureus; assay: Minimum inhibitory concentration by microdilution assay; type: cell-based, Staphylococcus aureus (ATCC 6538); conditions: 37° C., 24 h
Method: (§1) Staphylococcus aureus (ATCC 6538, gram-positive), Escherichia coli (ATCC 25922, gram-negative), Pseudomonas aeruginosa (gram-negative), and Candida albicans (ATCC 10231, yeast) were used as representative microorganisms to challenge the antimicrobial functions of the imidazolium salts. All bacteria and yeast were stored frozen at −80° C., and were grown overnight at 37° C. in Tryptic Soy broth (TSB) prior to experiments. Yeast was grown overnight at 22° C. in Yeast Mold (YM) broth. Subsamples of these cultures were grown for 3 h further and diluted to give an optical density value of 0.07 at 600 nm, corresponding to 3×10^8 CFU mL^−1 (MacFarland's Standard).
(§2) The oligomer compounds were dissolved in PBS at a concentration of 1 mg mL^1 and the minimal inhibitory concentrations (MICs) were determined by microdilution assay. Typically, a 100 μL microbial solutions (containing 3×10^8 cells mL^−1) were added to 100 μL of PBS containing the test imidazolium salts (normally ranging from […] in serial two-fold dilutions) in each well of the 96-well microtiter plate. The plates were incubated at 37° C. for 24 h with shaking at 300 rpm, with monitoring at the 2, 4, 6, 8, and 24 h time points. […] Broth and PBS solution containing microbial cells alone were used as negative controls, and experiments were run in triplicates.

[2] = test system: E. coli; assay: as above; type: cell-based, Escherichia coli (ATCC 25922); conditions: E. coli, 37° C., 24 h
Method: as §1, §2

[3] = test system: P. aeruginosa; assay: as above; type: cell-based, Pseudomonas aeruginosa; conditions: 37° C., 24 h
Method: as §1, §2

[4] = test system: C. Albicans; assay: as above; type: cell-based, Candida albicans (ATCC 10231); conditions: 24 h
Method: as §1, §2

[5] = test system: 4 microbes (S. aureus, E. coli, P. aeruginosa, C. Albicans); assay: MIC over the 4 microbes tested (geometric mean); type: cell-based; conditions: geometric mean of the MICs of the 4 microbes
Method: Staphylococcus aureus (ATCC 6538, gram-positive), Escherichia coli (ATCC 25922, gram-negative), Pseudomonas aeruginosa (gram-negative), and Candida albicans (ATCC 10231, yeast) were used as representative microorganisms to challenge the antimicrobial functions of the imidazolium salts. All bacteria and yeast were stored frozen at −80° C., and were grown overnight at 37° C. in Tryptic Soy broth (TSB) prior to experiments. Yeast was grown overnight at 22° C. in Yeast Mold (YM) broth. […] Typically, a 100 μL microbial solutions (containing 3×10^8 cells mL^−1) were added to 100 μL of PBS containing the test imidazolium salts (normally ranging from […] in serial two-fold dilutions) in each well of the 96-well microtiter plate. The plates were incubated at 37° C. for 24 h with shaking at 300 rpm, with monitoring at the 2, 4, 6, 8, and 24 h time points. […] Broth and PBS solution containing microbial cells alone were used as negative controls, and experiments were run in triplicates. The selectivity of the materials was also further assessed, by calculating the selectivity indices (SI), a measure and a comparison of safety and efficacies of each oligomer compound. […] Herein, the more stringent control of HC10 value was chosen over the HC50 value often reported in literature.

[6] = test system: rat red blood cells (RBCs); assay: Hemolysis; type: cell-based; conditions: lowest concentration that induces 10% or more hemolysis; rat RBCs, 1 h, 37° C.; maximum tested 100,000 ppm
Method: Before these materials can be used in systemic applications, selectivity of these materials for microbial cells over mammalian cells should also be considered. Such selectivity is often determined by observation of hemolysis. Hemolysis was performed in the following manner, fresh rat red blood cells (RBCs) were diluted with PBS buffer to give an RBC stock suspension (4 vol % blood cells). A 100 μL aliquot of RBC stock was added to a 96-well plate containing […] oligomer compound stock solutions of various concentrations (serial 2-fold dilution in PBS). After 1 h incubation at 37° C., The contents of each well was pipetted into a microcentrifuge tube and then centrifuged at 4000 rpm for 5 min. Hemolytic activity was determined as a function of hemoglobin release by measuring OD576 of […] of the supernatant. A control solution that contained only PBS was used as a reference for 0% hemolysis. 100% hemolysis was measured by adding 0.5% Triton-X to the RBCs. [formula] The selectivity of the materials was also further assessed, by calculating the selectivity indices (SI), a measure and a comparison of safety and efficacies of each oligomer compound. […] Herein, the more stringent control of HC10 value was chosen over the HC50 value often reported in literature.

[7] = test system: S. aureus; assay: Minimum biocidal concentration / killing efficiency (24 h); type: cell-based, Staphylococcus aureus
Method: (§3) To determine the minimum bacteriocidal concentration, the microbes were inoculated and prepared according to the procedure for MIC determination. […] The bacterial samples were taken out of each well after the aforementioned period, and subjected to a series of 10-fold dilutions. 20 uL of the diluted sample was then streaked across an agar plate, before incubation of the plate at 37° C. for 24 h. Colony forming units (CFU) were counted after overnight incubation, and the results were calculated according to the formula: [formula]

[8] = test system: E. coli; assay: as above; type: cell-based, Escherichia coli
Method: as §3

[9] = test system: E. coli; assay: Time kill kinetics; type: cell-based, Escherichia coli; conditions: two minutes; for % kill / Log reduction: E. coli, 4MIC
Method: Time kill studies of the soligome compounds against E. coli were also studied. The experimental setup for time kill kinetics was similar to the set up for MBC determination. The microbes were treated with oligomer compounds at 4MIC concentration, and samples were taken out of each well at 2 minutes. 500 μl of cell suspension was removed, rescued by a series of 10-fold dilutions with growth medium, and kept on ice until plating. For plating, 50 μl to 200 μl of the diluted samples was spread on growth medium agar plates and colonies were counted after overnight incubation at 37° C.

[10] = Critical micellar concentration (pyrene fluorescent probe); type: physicochemical; conditions: FIG. 4, deionized water
Method: The CMC values of the oligomer compounds were determined in both deionised (DI) water and PBS, using a LS50B luminescence spectrometer (Perkin Elmer, United States) and employing pyrene as a fluorescent probe. A known weight of the oligomer compound was dissolved in either 2 mL of DI water or PBS in a 4 mL glass vial and serial dilutions were effected. 10 μL of pyrene stock solution in acetone (6.16×10^-5 M) was added to each vial containing 1 mL of a known concentration of the oligomer compound, and the acetone was then evaporated at room temperature. The solution was allowed to equilibrate overnight and the final concentration of pyrene in each vial was 6.16×10^-7 M. The excitation spectra of the solutions were scanned from 300 to 360 nm with an emission wavelength of 395 nm, and both the excitation and emission bandwidths were set at 2.5 nm. The intensity ratios ([…]/[…]) were plotted against polymer concentration. The CMC value was given by the intersection of the tangent to the curve at the inflection and the tangent of the points at low polymer concentrations.

[11] = Gelling properties in solvents (tube inversion test); type: physicochemical
Method: Gels were prepared by weighing the imidazolium oligomer compounds directly into 4 mL glass vials and subsequently adding a known weight or volume of the solvent. The vials containing both the imidazolium and the solvent were either vortexed or sonicated to ensure that the imidazolium was dissolved and dispersed thoroughly before being placed in a 4° C. fridge overnight. The tube inversion test method was used to examine gel formation in different solvents.

SMILES | MIC S.A. [1] [µg/mL] | MIC E. coli [2] [µg/mL] | MIC P.A. [3] [µg/mL] | MIC C.A. [4] [µg/mL] | MIC GM [5] [µg/mL] | HC10 [6] [ppm] | % killing ([7]; 0.5 MIC) [%] | Log reduction ([7]; 0.5 MIC) | % killing ([7]; 2 MIC) [%] | Log reduction ([7]; 2 MIC) | % killing ([7]; MIC) [%] | Log reduction ([7]; MIC) | % killing ([8]; 0.5 MIC) [%] | Log reduction ([8]; 0.5 MIC) | % killing ([8]; 2 MIC) [%] | Log reduction ([8]; 2 MIC) | % killing ([8]; MIC) [%] | % kill [9] [%] | Log reduction [9] | sharp point of inflection indicating the critical micellar concentrations [10] | other results
CCCCCC[n+]1ccn(Cc2ccc(C[n+]3ccn(Cc4ccc(C[n+]5ccn(Cc6ccccc6Cn6cc[n+](Cc7ccc(Cn8cc[n+](Cc9ccc(Cn%10cc[n+](CCCCCC)c%10)cc9)c8)cc7)c6)c5)cc4)c3)cc2)c1.[Br-].[Br-].[Cl-].[Cl-].[Cl-].[Cl-] [Compound 1] | 4 | 8 | 8 | 16 | 8 | >100000 | 99.975 | 3.69 ± 0.335 | >99.999 | 7.28 ± 0.036 | 99.999 | 5.35 ± 0.094 | 97.692 | 1.48 ± 0.212 | >99.999 | 8.40 ± 0.403 | >99.999 | 99.8 | 2.85 | not observed | Log reduction ([8]; MIC): 7.53 ± 0.173; State in solvent ([11]; Acetone): Insoluble; State in solvent ([11]; Acetonitrile): Insoluble; Concentration to form gel ([11]; EtOH): (11 wt %); State in solvent ([11]; EtOH): Gel; State in solvent ([11]; Ethylene glycol): Solution; State in solvent ([11]; Glycerol): Solution; Concentration to form gel ([11]; nBuOH): (9.2 wt %); State in solvent ([11]; nBuOH): Gel; Concentration to form gel ([11]; nPrOH): (7.8 wt %); State in solvent ([11]; nPrOH): Gel
CCCCCCCC[n+]1ccn(Cc2ccc(C[n+]3ccn(Cc4ccc(C[n+]5ccn(Cc6ccccc6Cn6cc[n+](Cc7ccc(Cn8cc[n+](Cc9ccc(Cn%10cc[n+](CCCCCCCC)c%10)cc9)c8)cc7)c6)c5)cc4)c3)cc2)c1.[Br-].[Br-].[Cl-].[Cl-].[Cl-].[Cl-] [Compound 2] | 4 | 8 | 16 | 16 | 9.51 | 12500 | 98.03 | 1.71 ± 0.032 | >99.999 | 13.38 ± 0.337 | >99.999 | 11.82 ± 0.067 | 99.779 | 2.67 ± 0.128 | >99.999 | 7.19 ± 0.149 | >99.999 | >99.9 | 3.11 | not observed | Log reduction ([8]; MIC): 7.11 ± 0.123; State in solvent ([11]; Acetone): Insoluble; State in solvent ([11]; Acetonitrile): Insoluble; Concentration to form gel ([11]; EtOH): (11 wt %); State in solvent ([11]; EtOH): Gel; State in solvent ([11]; Ethylene glycol): Solution; State in solvent ([11]; Glycerol): Solution; Concentration to form gel ([11]; nBuOH): (11.3 wt %); State in solvent ([11]; nBuOH): Gel; Concentration to form gel ([11]; nPrOH): (9.8 wt %); State in solvent ([11]; nPrOH): Gel
c1ccc(C[n+]2ccn(Cc3ccc(C[n+]4ccn(Cc5ccc(C[n+]6ccn(Cc7ccccc7Cn7cc[n+](Cc8ccc(Cn9cc[n+](Cc%10ccc(Cn%11cc[n+](Cc%12ccccc%12)c%11)cc%10)c9)cc8)c7)c6)cc5)c4)cc3)c2)cc1 [IBN-1, reference compound] | 3 | 4 | 31 | 31 | 10.36 | >100000 | – | – | – | – | – | – | – | – | – | – | – | 83.33 | 0.79 | not observed | killing within two minutes ([9]; E. coli (3×10^8 cells mL^−1), 32 ppm concentration of oligomer compounds): 83%; Gel formation ([11]; any of the solvents): not able to form gels
